The target of one data set is T1, NMDA-receptor subtype 2B (Rattus norvegicus, UniProt P35439+Q00960).
T1 construct: Membranes were prepared by homogenization of the whole brain minus cerebellum and medulla oblongata; from tissue; host or cells: rat whole brain minus cerebellum and medulla oblongata, membrane preparation
Kind of data set: 3H-Ro 25-6981 binding (displacement) on rat brain membranes. The note with it: displacement of 5 nM 3H-Ro 25-6981, rat whole brain membranes (minus cerebellum and medulla oblongata), 2 hours at 4° C. As for the experimental part:
^3H[R-(R*,S*)]-(α-(4-Hydroxy-phenyl)-β-methyl-4-(phenyl-methyl)-1-piperidine propanol)binding
Male Füllinsdorf albino rats weighing between 150-200 g were used. Membranes were prepared by homogenization of the whole brain minus cerebellum and medulla oblongata with a Polytron (10.000 rpm, 30 seconds), in 25 volumes of a cold Tris-HCl 50 mM, EDTA 10 mM, pH 7.1 buffer. The homogenate was centrifuged at 48,000 g for 10 minutes at 4° C. The pellet was resuspended using the Polytron in the same volume of buffer and the homogenate was incubated at 37° C. for 10 minutes. After centrifugation the pellet was homogenized in the same buffer and frozen at −80° C. for at least 16 hours but not more than 10 days. For the binding assay the homogenate was thawed at 37° C., centrifuged and the pellet was washed three times as above in a Tris-HCl 5 mM, pH 7.4 cold buffer. The final pellet was resuspended in the same buffer and used at a final concentration of […]. ^3H-Ro 25-6981 binding experiments were performed using a Tris-HCl 50 mM, pH 7.4 buffer. For displacement experiments 5 nM of ^3H-Ro 25-6981 were used and non specific binding was measured using 10 mM of tetrahydroisoquinoline and usually it accounts for 10% of the total. The incubation time was 2 hours at 4° C. and the assay was stopped by filtration on Whatmann GF/B glass fiber filters (Unifilter-96, Packard, Zürich, Switzerland). The filters were washed 5 times with cold buffer. The radioactivity on the filter was counted on a Packard Top-count microplate scintillation counter after addition of […] of microscint 40 (Canberra Packard S.A., Zuirich, Switzerland).
The effects of compounds were measured using a minimum of 8 concentrations and repeated at least once.

The melting point is the temperature, or range, at which the solid turns liquid. For orientation: IC50 means the midpoint of a concentration-inhibition curve.

Structures can show the parent of a compound that is named as a salt.

T1 sequence (Q00960 27-1482, other chains not shown): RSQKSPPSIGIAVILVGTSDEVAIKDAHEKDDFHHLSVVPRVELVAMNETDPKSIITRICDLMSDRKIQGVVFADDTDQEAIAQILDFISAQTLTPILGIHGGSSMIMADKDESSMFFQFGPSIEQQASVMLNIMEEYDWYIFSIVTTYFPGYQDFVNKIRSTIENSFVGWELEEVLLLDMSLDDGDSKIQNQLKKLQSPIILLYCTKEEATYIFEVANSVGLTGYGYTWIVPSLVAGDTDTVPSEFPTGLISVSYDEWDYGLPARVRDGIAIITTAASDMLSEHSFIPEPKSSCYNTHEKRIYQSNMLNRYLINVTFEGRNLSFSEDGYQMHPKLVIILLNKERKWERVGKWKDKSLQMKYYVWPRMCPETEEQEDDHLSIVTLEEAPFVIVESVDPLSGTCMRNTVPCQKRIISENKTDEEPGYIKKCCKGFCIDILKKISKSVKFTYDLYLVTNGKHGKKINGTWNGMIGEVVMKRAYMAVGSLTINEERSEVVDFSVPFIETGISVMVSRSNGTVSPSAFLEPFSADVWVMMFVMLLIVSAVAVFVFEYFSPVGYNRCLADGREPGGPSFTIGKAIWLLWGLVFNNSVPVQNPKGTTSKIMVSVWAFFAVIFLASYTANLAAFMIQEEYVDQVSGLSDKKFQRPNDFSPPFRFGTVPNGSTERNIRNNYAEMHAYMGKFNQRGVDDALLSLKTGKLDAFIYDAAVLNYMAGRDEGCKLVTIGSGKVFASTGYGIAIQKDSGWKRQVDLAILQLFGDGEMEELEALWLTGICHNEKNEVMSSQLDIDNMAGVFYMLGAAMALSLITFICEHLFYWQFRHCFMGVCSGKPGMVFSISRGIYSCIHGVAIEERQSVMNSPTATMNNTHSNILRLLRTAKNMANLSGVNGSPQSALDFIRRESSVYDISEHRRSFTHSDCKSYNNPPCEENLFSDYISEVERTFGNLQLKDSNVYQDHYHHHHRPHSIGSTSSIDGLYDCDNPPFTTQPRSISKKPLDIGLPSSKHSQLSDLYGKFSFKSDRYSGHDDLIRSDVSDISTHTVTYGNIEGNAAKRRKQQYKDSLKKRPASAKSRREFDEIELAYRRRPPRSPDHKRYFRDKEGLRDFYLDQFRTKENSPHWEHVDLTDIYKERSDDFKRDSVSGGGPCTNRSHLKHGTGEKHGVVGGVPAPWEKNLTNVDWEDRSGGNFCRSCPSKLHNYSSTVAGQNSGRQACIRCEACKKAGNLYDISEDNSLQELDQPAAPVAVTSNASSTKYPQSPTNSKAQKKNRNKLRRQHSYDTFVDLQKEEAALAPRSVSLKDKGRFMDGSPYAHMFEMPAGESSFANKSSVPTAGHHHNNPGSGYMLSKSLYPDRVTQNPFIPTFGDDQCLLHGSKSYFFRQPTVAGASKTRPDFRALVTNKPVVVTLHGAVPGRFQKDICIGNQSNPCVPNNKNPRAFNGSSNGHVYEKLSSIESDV

`Cc1nccn1Cc1cn(-c2ccc3c(c2)CCC3)cn1.Cl.Cl` [Example 16, 1H-Imidazole, 1-[[1-(2,3-Dihydro-1H-inden-5-yl)-1H-imidazol-4-yl]methyl]-2-methyl-, Hydrochloride (1:2)] gave a melting point of 242 to 243 °C. The compound further yielded an IC50 on NMDA-receptor subtype 2B of 0.009 µM.
Taken in the same sequence, the figures for `CCc1nccn1Cc1cn(-c2cc(F)cc(Br)c2)cn1.Cl.Cl` [Example 199, 1H-Imidazole, 1-[[1-(3-Bromo-5-fluorophenyl)-1H-imidazol-4-yl]methyl]-2-ethyl-, Hydrochloride (1:2)] were > 200 °C (dec.) and 0.098 µM.
`Cl.Cl.Fc1ccc(-n2cnc(Cn3ccnc3)c2)cc1Br` [Example 158, 1-(3-Bromo-4-fluoro-phenyl)-4-imidazol-1-ylmethyl-1H-imidazole Hydrochloride (1:2)] returned a melting point of 229 to 230 °C. The IC50 at NMDA-receptor subtype 2B came to 0.041 µM.
For `CCc1nccn1Cc1cn(-c2cccc(Cl)c2)cn1.Cl.Cl` [Example 174, 1H-Imidazole, 1-[[1-(3-Chlorophenyl)-1H-imidazol-4-yl]methyl]-2-ethyl-, Hydrochloride (1:2)] the same measures were > 200 °C (dec.) and 0.063 µM.
In the case of `Cc1cc(-c2cnc(Cn3ccnc3C)n2C)ccc1Cl` [Example 232, 5-(4-Chloro-3-methyl-phenyl)-1-methyl-2-(2-methyl-imidazol-1-ylmethyl)-1-H-imidazole-hydrochloride Hydrochloride (1:1)], on NMDA-receptor subtype 2B, the IC50 was 0.04 µM. That is a double-digit nanomolar value.
`CSc1ccc(-n2cnc(Cn3ccnc3C)c2)cc1` [Example 27] displayed an IC50 at NMDA-receptor subtype 2B of 0.027 µM.
Turning to “1H-Imidazole, 1-(3,4-Dichlorophenyl)-4-[(4-methyl-1H-imidazol-1-yl)methyl]-, Hydrochloride (1:2) and 1H-Imidazole, 1-(3,4-Dichlorophenyl)-4-[(5-methyl-1H-imidazol-1-yl)methyl]-, Hydrochloride (1:2) (ratio 3:2) [Example 6]”, on NMDA-receptor subtype 2B, the concentration for half-maximal inhibition (IC50) turned out to be 0.045 µM. This IC50 is about 1.7-fold higher than that of the compound before.
`Cc1cc(-c2cnc(Cn3ccnc3C)n2C)ccc1F` [Example 230, 5-(4-Fluoro-3-methyl-phenyl)-1-methyl-2-(2-methyl-imidazol-1-ylmethyl)-1-H-imidazole Hydrochloride (1:1)] showed an IC50 at NMDA-receptor subtype 2B of 0.084 µM.
For `Cc1nccn1Cc1cncc(-c2cccc(C(C)(F)F)c2)c1` [Example 226, 3-[3-(1,1-Difluoro-ethyl)-phenyl]-5-(2-methyl-imidazol-1-ylmethyl)-pyridine], at NMDA-receptor subtype 2B, the IC50 amounted to 0.02 µM.
On the same count and under the same terms, the same measure for `CCc1nccn1Cc1cn(-c2cccc(C(C)C)c2)cn1` [Example 153]: 0.02 µM; for `Cc1nccn1Cc1cn(-c2cccc(Cl)c2)cn1` [Example 173]: 0.028 µM; for `Cc1ccc(-c2cncc(Cn3ccnc3C)c2)cc1C` [Example 130, 3-(3,4-Dimethyl-phenyl)-5-(2-methyl-imidazol-1-yl-methyl)-pyridine Hydrochloride (1:1)]: 0.065 µM.
With `Cc1nccn1Cc1cncc(-c2ccc(F)c(Cl)c2)c1` [Example 140, 3-(3-Chloro-4-fluoro-phenyl)-5-(2-methyl-imidazol-1-yl-methyl)-pyridine Hydrochloride (1:1)], the IC50 on NMDA-receptor subtype 2B worked out at 0.04 µM.
`CCc1nccn1Cc1cn(-c2ccc(F)c(C(F)F)c2)cn1` [Example 164, 1H-Imidazole, 1-[[1-(3-Difluoromethyl-4-fluorophenyl)-1H-imidazol-4-yl]methyl]-2-ethyl-, Hydrochloride (1:2)] gave an IC50 on NMDA-receptor subtype 2B of 0.03 µM.
Turning to `CCc1nccn1Cc1cn(-c2cc(OC)cc(C(F)(F)F)c2)cn1` [Example 181], at NMDA-receptor subtype 2B, the IC50 was 0.053 µM. This IC50 lies about 1.8-fold higher than the previous one.
For the compound `Cc1nccn1Cc1cn(-c2ccc3ccccc3c2)cn1` [Example 155, 1H-Imidazole, 2-Methyl-1-[[1-(naphtalen-2-yl)-1H-imidazol-4-yl]methyl]-, Hydrochloride (1:2)], at NMDA-receptor subtype 2B, the IC50 came out at 0.01 µM.
On the same count and under the same terms, the result for `CCc1nccn1Cc1cn(-c2cccc(SC(F)(F)F)c2)cn1` [Example 143] reads 0.0073 µM.

The record behind these values is patent US6667335B2, “Imidazole derivatives” (Hoffmann-La Roche Inc., priority 2001, dated 2003).
